Test results reported in paper PMC9516332 (Frontiers in Oncology, 2022).

Key:
Test in all cases: Kinase panel profiling at 1 µmol/L (MSA or IMAP), percentage inhibition
Assay type in all cases: biochemical
[1] = target: panel of 255 wild-type kinases (Homo sapiens, UniProt P07948); details: kinase LYNa; 1 µmol/L single concentration; read-out: %-inhibition at 1 µmol/L, LYNa
[2] = target: T1, panel of 255 wild-type kinases (Homo sapiens, UniProt Q13237); details: CGK2 kinase assay; 1 µmol/L single concentration; read-out: %-inhibition CGK2
T1 sequence (Q13237 1-762): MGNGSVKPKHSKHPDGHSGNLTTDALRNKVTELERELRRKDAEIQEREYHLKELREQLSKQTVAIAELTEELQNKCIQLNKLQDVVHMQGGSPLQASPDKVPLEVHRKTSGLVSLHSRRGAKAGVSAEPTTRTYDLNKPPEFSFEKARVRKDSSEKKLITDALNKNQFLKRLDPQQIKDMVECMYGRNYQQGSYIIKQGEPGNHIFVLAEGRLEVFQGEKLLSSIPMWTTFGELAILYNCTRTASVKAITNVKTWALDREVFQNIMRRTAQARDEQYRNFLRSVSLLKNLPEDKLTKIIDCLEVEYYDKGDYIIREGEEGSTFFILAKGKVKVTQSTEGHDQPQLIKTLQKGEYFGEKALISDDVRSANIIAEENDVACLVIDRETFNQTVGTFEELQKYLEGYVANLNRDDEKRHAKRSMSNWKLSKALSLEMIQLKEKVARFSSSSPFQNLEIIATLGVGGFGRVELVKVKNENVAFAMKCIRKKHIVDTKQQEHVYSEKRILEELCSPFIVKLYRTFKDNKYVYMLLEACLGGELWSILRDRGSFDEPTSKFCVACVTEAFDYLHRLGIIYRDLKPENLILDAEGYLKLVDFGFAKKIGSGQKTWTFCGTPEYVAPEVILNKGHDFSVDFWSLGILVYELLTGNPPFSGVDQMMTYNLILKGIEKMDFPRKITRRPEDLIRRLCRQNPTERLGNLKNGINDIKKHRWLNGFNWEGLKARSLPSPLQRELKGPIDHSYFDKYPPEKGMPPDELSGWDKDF

[3] = target: panel of 255 wild-type kinases (Homo sapiens, UniProt P53779); details: kinase JNK3; 1 µmol/L single concentration; read-out: %-inhibition at 1 µmol/L, JNK3
[4] = target: panel of 255 wild-type kinases (Homo sapiens, UniProt Q5VT25); details: MRCKα; 1 µmol/L single concentration; read-out: %-inhibition, MRCKα
[5] = target: panel of 255 wild-type kinases (Homo sapiens, UniProt P22455); details: kinase FGFR4; 1 µmol/L single concentration; read-out: %-inhibition at 1 µmol/L, FGFR4
[6] = target: panel of 255 wild-type kinases (Homo sapiens, UniProt Q7KZI7); details: MARK2; 1 µmol/L single concentration; read-out: %-inhibition, MARK2
[7] = target: panel of 255 wild-type kinases (Homo sapiens, UniProt Q13554); details: CaMK2β kinase assay; 1 µmol/L single concentration; read-out: %-inhibition CaMK2β
[8] = target: T2, panel of 255 wild-type kinases (Homo sapiens, UniProt Q13470); details: kinase TNK1; 1 µmol/L single concentration; read-out: %-inhibition at 1 µmol/L, TNK1
T2 sequence (Q13470 1-666): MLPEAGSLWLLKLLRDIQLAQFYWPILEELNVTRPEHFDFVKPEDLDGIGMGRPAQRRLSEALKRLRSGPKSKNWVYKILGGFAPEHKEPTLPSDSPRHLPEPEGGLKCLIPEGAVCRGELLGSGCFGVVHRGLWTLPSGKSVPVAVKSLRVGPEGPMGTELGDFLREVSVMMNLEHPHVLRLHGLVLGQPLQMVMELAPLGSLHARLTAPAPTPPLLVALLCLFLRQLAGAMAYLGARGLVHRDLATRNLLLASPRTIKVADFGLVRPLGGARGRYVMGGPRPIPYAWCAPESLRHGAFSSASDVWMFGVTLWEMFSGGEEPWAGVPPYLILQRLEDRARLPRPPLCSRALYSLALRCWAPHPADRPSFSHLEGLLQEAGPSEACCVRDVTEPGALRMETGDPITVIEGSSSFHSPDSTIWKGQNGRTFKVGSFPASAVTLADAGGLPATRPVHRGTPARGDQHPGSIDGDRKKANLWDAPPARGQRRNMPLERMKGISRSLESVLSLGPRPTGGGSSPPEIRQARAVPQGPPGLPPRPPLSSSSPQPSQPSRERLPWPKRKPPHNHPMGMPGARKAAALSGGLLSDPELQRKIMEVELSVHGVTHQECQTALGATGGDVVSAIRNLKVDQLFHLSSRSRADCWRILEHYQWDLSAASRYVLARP

[9] = target: panel of 255 wild-type kinases (Homo sapiens, UniProt Q13464); details: kinase ROCK1; 1 µmol/L single concentration; read-out: %-inhibition at 1 µmol/L, ROCK1
[10] = target: T3, panel of 255 wild-type kinases (Homo sapiens, UniProt P42681); details: kinase TXK; 1 µmol/L single concentration; read-out: %-inhibition at 1 µmol/L, TXK
T3 sequence (P42681 1-527): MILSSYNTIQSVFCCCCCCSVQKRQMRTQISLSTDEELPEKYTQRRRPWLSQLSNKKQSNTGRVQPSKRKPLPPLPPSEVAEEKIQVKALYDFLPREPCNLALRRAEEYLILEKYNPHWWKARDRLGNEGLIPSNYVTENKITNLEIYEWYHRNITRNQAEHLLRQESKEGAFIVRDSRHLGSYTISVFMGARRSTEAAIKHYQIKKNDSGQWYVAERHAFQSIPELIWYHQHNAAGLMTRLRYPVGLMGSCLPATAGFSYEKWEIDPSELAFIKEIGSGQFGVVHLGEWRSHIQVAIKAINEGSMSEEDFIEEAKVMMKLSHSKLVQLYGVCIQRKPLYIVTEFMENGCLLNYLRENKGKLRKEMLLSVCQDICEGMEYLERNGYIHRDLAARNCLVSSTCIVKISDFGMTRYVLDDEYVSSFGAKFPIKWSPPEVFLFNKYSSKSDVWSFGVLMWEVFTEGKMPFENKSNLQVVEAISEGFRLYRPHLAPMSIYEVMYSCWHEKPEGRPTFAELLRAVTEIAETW

Structure (SMILES) | inhibition at 1 µM [1] [%] | inhibition at 1 µM [2] [%] | inhibition at 1 µM [3] [%] | inhibition at 1 µM [4] [%] | inhibition at 1 µM [5] [%] | inhibition at 1 µM [6] [%] | inhibition at 1 µM [7] [%] | inhibition at 1 µM [8] [%] | inhibition at 1 µM [9] [%] | inhibition at 1 µM [10] [%]
CCN1C(=O)N(c2c(F)c(OC)cc(OC)c2F)Cc2cnc3[nH]c(CN4CCOCC4)cc3c21 [pemigatinib] | 66 | 1.58 | -7 | -3.23 | 100 | 50 | 9 | 5 | -2.6 | -0.753
FC(F)(F)c1ccc(CNc2ccc(Cc3c[nH]c4ncc(Cl)cc34)cn2)cn1 [pexidartinib] | 24 | 17 | 0.454 | 0.771 | 7.42 | 5.3 | 3 | 37 | 9 | 6.34
CO[C@]1(C(=O)N[C@@H](C)c2ccc(-n3cc(F)cn3)nc2)CC[C@H](c2nc(C)cc(Nc3cc(C)[nH]n3)n2)CC1 [pralsetinib] | 92 | 25 | 6 | 1.82 | 85 | -15 | -0.895 | 71 | 3.43 | 41
CCn1c(=O)c(-c2cc(NC(=O)Nc3ccccc3)c(F)cc2Br)cc2cnc(NC)cc21 [ripretinib] | 85 | 0.547 | 10 | -1.14 | 11 | -2.22 | 1.19 | 17 | -2.14 | 11
COc1ccc(CN2C3CC2CN(c2ccc(-c4cc(OCC(C)(C)O)cn5ncc(C#N)c45)cn2)C3)cn1 [selpercatinib] | 60 | 16 | -8.47 | -2.65 | 84 | 26 | 1.27 | 30 | 3.51 | 54
Cn1cnc2c(F)c(Nc3ccc(Br)cc3Cl)c(C(=O)NOCCO)cc21 [selumetinib] | 6.53 | -1.64 | 2.14 | 2.24 | 6.37 | -14 | -0.923 | -8 | -1.15 | 3.19
Cc1cc(Nc2ncnc3ccc(NC4=NC(C)(C)CO4)cc23)ccc1Oc1ccn2ncnc2c1 [tucatinib] | 7 | -0.162 | 1.13 | 0.364 | 4 | -12 | 1.33 | 4.33 | -0.767 | 5
